Test results published in US10543262B2, “Combination therapy utilizing P2X7 peptides” (BIOSCEPTRE (AUST) PTY LTD, priority 2011, dated 2020).

Test system: nfP2X7 receptors
Assay: ELISA of specific anti-nfP2X7 antibody response in patient serum after immunisation with peptide-KLH conjugate
Assay type: in vivo, human
Procedure: Peptide immunogen was synthesised to high purity in the form GHNYTTRNILPGLNITC (SEQ ID NO:2) to which was added the cross-linker maleimidocaproyl-N-hydroxysuccinimide (MCS) at the C-terminal Cys residue. The peptide was cross-linked to a carrier protein Keyhole Limpet Hemocyanin (KLH) such that the average percentage of peptide to total peptide-protein conjugate was 40%. This peptide or the alternative peptide […] (SEQ ID NO:5) similarly conjugated to KLH constituted selective epitope targets, primary and compound respectively that enabled differentiation of the nfP2X7 receptors to be made from native receptors.
The peptide-protein conjugate was added at a concentration of 2.5 mg/mL conjugate (1 mg/mL peptide) dropwise with thorough mixing in the adjuvant in an amount equal to 0.5 mL conjugate to 0.75 mL adjuvant containing 0.5 mg of target peptide epitope.
The immunisation schedule consisted of a primary inoculation (two injections subcutaneously and two injections intramuscularly) of a total of 0.5 mg peptide followed a month later with a boost applied the same way with 0.3 mg peptide. Serum samples were collected immediately prior to and a week post injections. Inoculation is ideally administered no less than a month after the final infusion of anti-nfP2X7 antibody to ensure no sequestration of the immunogen by residual specific anti-nfP2X7 antibody infusate.
Specific anti-nfP2X7 antibody responses were measured by ELISA. In brief, the ELISA plate was coated with specific target peptide epitope, either naked or conjugated to a carrier other than the one against which the antibody response was generated, over which patient serum is added in a descending concentration. After washing, an appropriate secondary anti-human antibody (anti-IgM or anti-IgG types) is applied to detect and determine the concentration of specific human anti-nfP2X7 antibody present in the patient serum in the form of IgM or IgG.

[1] = following the primary inoculation (0.5 mg peptide)

GHNYTTRNILPGLNITC
specific anti-nfP2X7 IgM concentration in patient serum (ELISA) (following the boost (0.3 mg peptide)): returned to a baseline of zero | specific anti-nfP2X7 IgG concentration in patient serum (ELISA) (following the boost, provided no nfP2X7 receptor sink is present on extant tumor): higher concentration than the original IgM | specific anti-nfP2X7 IgG in patient serum (ELISA) [1]: no IgG is detectable | specific anti-nfP2X7 IgM in patient serum (ELISA) [1]: a small amount of IgM is detected | circulating anti-nfP2X7 antibody response in serum (ELISA) (patient with moderate tumor burden, Week 13, 9 weeks post boost): small level | circulating antibody present in serum (ELISA) (patient with moderate tumor burden, intermediate measurements Weeks 5 to 12): little circulating antibody was present | antibodies to the peptide detected in serum (ELISA) (patient with moderate tumor burden, pre-boost serum at Week 4, 4 weeks post initial immunisation): No antibodies were detected | circulating antibody levels detected in serum (ELISA) (patient with very small residual tumor burden, Week 5, 1 week post boost): much higher than in the patient who had a moderate tumor mass | specific endogenous anti-nfP2X7 antibody detected in the serum (patients without nfP2X7 receptor sink (original tumor cleared), after boost): ~5 mg/kg
